Where two headings read alike, the source gives them in different places.
Key:
[1] = target: recombinant biotinylated KRAS protein containing G12C/C51S/C80L/C118S mutations (Biotinylated KRAS G12C protein) (Homo sapiens (Human), UniProt P01116, C118S/C51S/C80L/G12C); test: SOS-catalyzed nucleotide exchange assay (TR-FRET); assay type: biochemical; conditions: apparent potency; preincubation time of 60 minutes prior to addition of SOS
Experimental: The SOS-catalyzed nucleotide exchange assay utilizes a preformed complex of recombinant biotinylated KRAS protein containing G12C/C51S/C80L/C118S mutations (183 amino acids; biotin on K10; leader sequence which is an AviTag; referred to as SEQ ID NO: 1 or “Biotinylated KRAS G12C protein” hereafter), Bodipy-GDP, and Terbium-streptavidin. Compounds are added to this complex and then after 60 minutes incubation time, the mixture is treated with recombinant SOS protein and unlabeled GTP. Small molecule inhibitors stabilize the Bodipy-GDP complex whereas the untreated protein rapidly exchanges Bodipy-GDP for unlabeled GTP resulting in reduced TR-FRET signal.
Biotinylated KRAS G12C protein (SEQ ID NO: 1) is diluted to 2 μM in an EDTA buffer (20 mM HEPES, 150 mM sodium chloride, 10 mM EDTA, and 0.01% Tween) and incubated at room temperature for one hour. This mixture is then further diluted to 90 nM in an assay buffer (20 mM HEPES, 150 mM sodium chloride, 10 mM magnesium chloride, and 0.005% Tween) containing 15 nM of Terbium-Streptavidin (Invitrogen, catalog #PV3577) and 900 nM of Bodipy-GDP and incubated at room temperature for six hours. This solution is referred to as Biotinylated KRAS G12C mixture.
Each test compound (10 mM stock in DMSO) is diluted in DMSO to make a 10-point, 3-fold dilution series in a 384-well low dead volume microplate (Labcyte, catalog #LP-0200). Once titrations are made, 10 nL of the diluted compounds is acoustically dispensed into a 384-well plate (Corning, catalog #3820) using an Echo 550 (Labcyte).
Each well of the plate receives 3 μL Biotinylated KRAS G12C mixture that had been incubating for six hours and 3 μL of assay buffer using a BioRAPTR (Beckman Coulter) and is incubated at room temperature for 60 minutes. Each well then receives 3 μL of 240 nM recombinant human SOS protein and 9 mM GTP (Sigma, G8877) in assay buffer and is incubated at room temperature for 60 minutes.
The time-resolved fluorescence resonance energy transfer signal of the plate is measured on an Envision (PerkinElmer) plate reader: Excitation filter=340 nm; emission1=495 nm; emission2=520 nm; dichroic mirror=D400/D505; delay time=100 μs. The signal of each well is determined as the ratio of the emission at 520 nm to that at 495 nm. Percent effect of each well is determined after normalization to control wells containing DMSO (no effect) or a saturating concentration of inhibitor (max effect). The apparent effect as a function of compound concentration is fit to a four parameter logistic equation.

[2] = test system: NCI-H358 cells; test: Cellular phospho-ERK assay; assay type: cell-based; conditions: 2 hour incubation, ratio of p-Erk vs total Erk, read-out: IC50 (nM) pERK (Cell)
Experimental: NCI-H358 cells (ATCC® CRL-5807™) were cultured in T150 flask in growth medium (RPMI medium 1640-(ThermoFisher Scientific 61870) containing 10% fetal bovine serum (ThermoFisher Scientific 10091148)). The cells were harvested in growth medium after TrypLE (ThermoFisher scientific 12604021) digestion and were seeded in 384-well collagen coated cell culture plate (Corning 356702) at a density of 15,000 cells/well, and incubated at 37° C., 5% CO2 overnight. The compound dose-response titrations were prepared and appropriate amounts of compounds were dispensed in a 384-well intermediate plate using an Echo 550 liquid handler. RPMI medium 1640-GlutaMAX™-I were added to the intermediate plate and transferred to 384-well cell culture plate, which was incubated at 37° C., 5% CO2 for 2 hours. After removal of medium from the plate, cells were lysed in lysis buffer from SureFire® Ultra™ Multiplex p-Erk and total Erk assay kit (PerkinElmer MPSU-PTERK) containing Halt™ Protease and Phosphotase inhibitor cocktail (ThermoFisher Scientific 78446) at room temperature with constant shaking at 300 rpm for 30 minutes. The cell lysates were then transferred to OptiPlate-384 plate (PerkinElmer 6005620) and the phosphorylation of Erk and total Erk levels were detected by Alpha SureFire Ultra Multiplex p-Erk kit PerkinElmer MPSU-PTERK) following the manufacturer's protocol. Assay plates were read on an EnVision Multimode Plate Reader (PerkinElmer), and the ratio of p-Erk vs total Erk in each well was used as the final readout. Dose response curves were analyzed using a 4-parameter logistic model to calculate IC50 values using spotfire software.

Chain of recombinant biotinylated KRAS protein containing G12C/C51S/C80L/C118S mutations (Biotinylated KRAS G12C protein) (P01116 other isoform, or with tags, fused parts or gaps, stated change not applied): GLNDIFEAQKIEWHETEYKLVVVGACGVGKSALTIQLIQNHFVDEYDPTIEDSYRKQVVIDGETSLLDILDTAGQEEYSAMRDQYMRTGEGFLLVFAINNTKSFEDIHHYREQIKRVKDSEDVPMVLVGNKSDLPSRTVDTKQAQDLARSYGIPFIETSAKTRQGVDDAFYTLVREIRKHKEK

Structure (SMILES) | IC50 [1] [nM] | IC50 ([2]; Homo sapiens, NCI-H358, 2 h) [nM] | IC50 [2] [nM]
C=CC(=O)N1CCN(c2nc(OC[C@@H]3CCCN3C)nc3c2CCC2(Cc4ccccc4C2)O3)C[C@@H]1CC#N [Example 29, 2-((S)-1-acryloyl-4-(2′-(((S)-1-methylpyrrolidin-2-yl)methoxy)-1,3,5′,6′-tetrahydrospiro[indene-2,7′-pyrano[2,3-d]pyrimidin]-4′-yl)piperazin-2-yl)acetonitrile] | 5010 | 19200 | 
C=C(F)C(=O)N1CCN(c2nc(OC[C@@H]3CCCN3C)nc3c2CCC2(CCCc4ccccc42)O3)C[C@@H]1CC#N (single isomer, unassigned) [Example 17a] | 823 | 6680 | 
C=CC(=O)N1CCN(c2nc(OC[C@@H]3CCCN3C)nc3c2CCC2(CCc4ccccc42)O3)C[C@@H]1CC#N (single isomer, unassigned) [Example 4b] | 164 |  | 2500
C=CC(=O)N1CCN(c2nc(OC[C@@H]3CCCN3CC)nc3c2CCC2(CCCc4ccccc42)O3)C[C@@H]1CC#N (single isomer, unassigned) [Example 15a] | 43.4 |  | 638
C=CC(=O)N1CCN(c2nc(C(=O)N[C@H](C)CN(C)C)nc3c2CCC2(CCCc4cccc(C)c42)O3)CC1 (single isomer, unassigned) [Example 19a] | 8470 | 30000 | 
C=CC(=O)N1CCN(c2nc(OC[C@@H]3CCCN3C)nc3c2CCC2(CCC(C)c4ccccc42)O3)C[C@@H]1CC#N (single isomer, unassigned) [Example 9a] | 40.5 |  | 1940
C=CC(=O)N1CCN(c2nc(OC[C@@H]3CCCN3C)nc3c2CCC2(CCCc4ccccc42)O3)[C@@H](C)C1 (stereo partly drawn) [Example 13a, 1-((3S)-3-methyl-4-(2′-(((S)-1-methylpyrrolidin-2-yl)methoxy)-3,4,5′,6′-tetrahydro-2H-spiro[naphthalene-1,7′-pyrano[2,3-d]pyrimidin]-4′-yl)piperazin-1-yl)prop-2-en-1-one] | 576 | 4980 | 
C=CC(=O)N1CCN(c2nc(OC[C@@H]3CCCN3C)nc3c2CCC2(CCCc4cccc(C)c42)O3)C[C@@H]1CC#N (single isomer, unassigned) [Example 1b] | 54.9 |  | 2860
C=CC(=O)N1CCN(c2nc(OC[C@@H]3CCCN3C)nc3c2CCC2(CCCc4ccccc42)O3)CC1 (single isomer, unassigned) [Example 21a] | 5340 | 10200 | 
C=CC(=O)N1CCN(c2nc(OC[C@@H]3CCCN3C)nc3c2CCC2(CCCc4cccc(C)c42)O3)CC1 (single isomer, unassigned) [Example 24a] | 2390 | 12900 | 
C=CC(=O)N1CCN(c2nc(OC[C@@H]3CCCN3C)nc3c2CCC2(CCC(F)(F)c4ccccc42)O3)C[C@@H]1CC#N (single isomer, unassigned) [Example 7a] | 77.3 | 1620 | 
C=CC(=O)N1CCN(c2nc(OCC[C@@H]3CCCN3C)nc3c2CCC2(CCCc4ccccc42)O3)C[C@@H]1CC#N (single isomer, unassigned) [Example 5a] | 18.7 |  | 1250
C=CC(=O)N1CCN(c2nc(N3CC(N(C)C)C3)nc3c2CCC2(CCCc4ccccc42)O3)C[C@@H]1CC#N (single isomer, unassigned) [Example 20a] | 41.8 | 1470 | 
C=CC(=O)N1CCN(c2nc(OC[C@@H]3CCCN3C)nc3c2CCC2(CC(C)c4ccccc42)O3)C[C@@H]1CC#N (single isomer, unassigned) [Example 25d] | 113 |  | 8130
C=CC(=O)N1CCN(c2nc(N3CC(N(C)C)C3)nc3c2CCC2(CCCc4ccccc42)O3)C[C@@H]1CC#N (single isomer, unassigned) [Example 20b] | 80.4 |  | 2760
C=CC(=O)N1CCN(c2nc(OC[C@@H]3CCCN3C)nc3c2CCC2(CCCc4ccccc42)O3)C[C@@H]1CC#N (single isomer, unassigned) [Example 2b] | 14.7 |  | 268
C=CC(=O)N1CCN(c2nc(OC[C@@H]3CCCN3C)nc3c2CCC2(O3)c3ccccc3CCC2C)C[C@@H]1CC#N (single isomer, unassigned) [Example 10a] | 145 | 6640 | 
C=CC(=O)N1CCN(c2nc(OC[C@@H]3CCCN3C)nc3c2CCC2(CCCc4c(C)cc(C)cc42)O3)C[C@@H]1CC#N (single isomer, unassigned) [Example 11a] | 46.7 |  | 1800
C=CC(=O)N1CCN(c2nc(OC[C@@H]3CCCN3C)nc3c2CCC2(CCCc4ccccc42)O3)C[C@H]1C (stereo partly drawn) [Example 14a, 1-((2R)-2-methyl-4-(2′-(((S)-1-methylpyrrolidin-2-yl)methoxy)-3,4,5′,6′-tetrahydro-2H-spiro[naphthalene-1,7′-pyrano[2,3-d]pyrimidin]-4′-yl)piperazin-1-yl)prop-2-en-1-one] | 2080 | 4200 | 
C=CC(=O)N1CCN(c2nc(OC[C@@H]3CCCN3C)nc3c2CCC2(CCC(C)(C)c4ccccc42)O3)C[C@@H]1CC#N (single isomer, unassigned) [Example 6a] | 181 | 3100 | 
C=CC(=O)N1CCN(c2nc(OC[C@@H]3CCCN3C)nc3c2CCC2(CCC(C)c4ccccc42)O3)C[C@@H]1CC#N (single isomer, unassigned) [Example 9b] | 34.2 |  | 1170
